What all share (type): cell-based
Test [1] relates to Enterococcus faecalis (ATCC #29212). Kind of test: Broth microdilution MIC, E. faecalis. As for the experimental part:
(§1) A broth microdilution assay is used to assess the antimicrobial activity of the compounds. Compounds are tested at twofold serial dilutions, and the concentration that inhibits visible growth (OD600 at 10% of control) is defined as the MIC. Microorganisms tested include Staphylococcus aureus (ATCC #29213), Enterococcus faecalis (ATCC #29212), Pseudomonas aeruginosa (ATCC #27853), and Escherichia coli (ATCC #25922). The assay is performed in two growth media, Mueller Hinton Broth and Trypticase Soy Broth.
(§2) A blood (Tsoy/5% sheep blood) agar plate is inoculated from frozen stocks maintained in T soy broth containing 10% glycerol and incubated overnight at 37° C. Colonies are suspended in sterile broth so that the turbidity matches the turbidity of a 0.5 McFarland standard. The inoculum is diluted 1:10 in sterile broth (Mueller Hinton or Trypticase soy) and 195 ul is dispensed per well of a 96-well plate. […]
(§3) After 24 hours of incubation at 37° C., plates are read at OD600 on a Molecular Devices SpectraMax Plus Spectrophotometer. Average OD600 values are computed using SOFTmax Pro Software (Molecular Devices) and MIC values are determined by linear regression analysis using Prism version 3.02 (Graph Pad Software, San Diego). […]
(In general: Broth dilution looks for growth in wells or tubes with falling amounts of substance.)

In test [2] the test system is MCF-7 human breast cancer cells. Put plainly: Crystal violet cell growth assay. To be noted: MCF7, MCF-7 cells, read-out: Cr. Violet (IC50). As to the method:
Crystal Violet Cell Growth Assay
The crystal violet assay measure cell growth but not cytotoxicity. This assay employs crystal violet staining of fixed cells in 96-well plates with subsequent solubilization and measurement of OD490 on a spectrophotometer. The OD490 corresponds to cell growth per unit time measured. Cells are treated with the compounds of interest or vehicle controls and IC50 for each compound is computed.
To measure the cytotoxicity of specific compounds against cancer cells, 5×10^4 MCF-7 human breast cancer cells, obtained from the American Type Culture Collection are plated per well in 24 well plates in DMEM medium with 10% fetal bovine serum, penicillin, and streptomycin. Following overnight culture at 37° C. and 5% CO2, the compounds to be tested, dissolved in DMSO, are added to the wells in 1 μl volume at the following concentrations: 50, 40, 30, 20, and 10 μg/ml in triplicate. […]
After 72 hours of incubation, cells are stained with 0.5 ml of Crystal Violet stain (0.5% in 25% methanol) in each well. […] Following transfer of 100 μl from each well to a 96-well plate, plates are read at OD490 on a Molecular Devices SpectraMax Plus Spectrophotometer Average OD490 values are computed using SOFTmax Pro Software (Molecular Devices) and IC50 values are determined by linear regression analysis using Prism version 3.02 (Graph Pad Software, San Diego).

The test system of test [3] is fatty acid synthesis in MCF-7 human breast cancer cells. Kind of test: [14C]acetate incorporation into total lipids. The note with it: MCF-7 cells. As for the experimental part: Measurement of [^14C]acetate Incorporation into Total Lipids and Determination of IC50 of Compounds
This assay measures the incorporation of [^14C]acetate into total lipids and is a measure of fatty acid synthesis pathway activity in vitro. It is utilized to measure inhibition of fatty acid synthesis in vitro.
MCF-7 human breast cancer cells cultured as above, are plated at 5×10^4 cells per well in 24-well plates. Following overnight incubation, the compounds to be tested, solubilized in DMSO, are added at 5, 10, and 20 μg/ml in triplicate, with lower concentrations tested if necessary. DMSO is added to triplicate wells for a vehicle control. C75 is run at 5 and 10 μg/ml in triplicate as positive controls. After 4 hours of incubation, 0.25 μCi of [^14C]acetate (10 μl volume) is added to each well.
After 2 hours of additional incubation, medium is aspirated from the wells and 800 μl of chloroform:methanol (2:1) and 700 μl of 4 mM MgCl2 is added to each well. Contents of each well are transferred to 1.5 Eppendorf tubes, and spun at full-speed for 2 minutes in a high-speed Eppendorf Microcentrifuge 5415D. After removal of the aqueous (upper) layer, an additional 700 μl of chloroform:methanol (2:1) and 500 μl of 4 mM MgCl2 are added to each tube and then centrifuged for 1 minutes as above. […] Once dried, 3 ml of scintillant (APB #NBC5104) is added and vials are counted for ^14C. […]

The subject of test [4] is Staphylococcus aureus (ATCC #29213). Kind of test: Broth microdilution MIC, S. aureus. As to the method:
as §1, §2, §3

In brackets after ≈: the same amount, converted by molar mass.

This is an account of results in patent publication US20090005435A1, “Novel Compounds, Pharmaceutical Compositions Containing Same, and Methods of Use for Same” (priority 2004, published 2009).

With `C=CCC1(CC=C)C(=O)SC(C)(CCCCCCCC)C1=O` (racemic) [Compound 4, 3,3-Diallyl-5-methyl-5-octyl-thiophene-2,4-dione], the MIC in test [1] (Enterococcus faecalis, ATCC29212, Trypticase Soy Broth, read-out: EF/Tsoy (MIC)) was determined as 169 µg/mL (≈ 524 µM); in test [4] (Staphylococcus aureus, ATCC29213, Trypticase Soy Broth, read-out: SA/Tsoy (MIC)) it was 98 µg/mL (≈ 304 µM). The “EF/MH (MIC)” value in test [1] (Mueller Hinton Broth) was “Neg”. Also, in test [2], the IC50 (commonly the midpoint of a concentration-inhibition curve) is 15 ± 7.7 µg/mL (≈ 46.5 µM). In addition, the “14C (IC50)” value in test [3] was “Neg”. In addition, the “SA/MH (MIC)” value in test [4] (Mueller Hinton Broth) was “Neg”.
